One assay deals with CV-1. In words: Inhibitory concentration against growth of monkey normal kidney epithelial cells as a measure of compound toxicity. The assay is classed as functional, cell-based, Cercopithecidae. The conditions noted are these: Chlorocebus aethiops.
The subject of the next assay is CX-1. Description: Inhibitory concentration against growth of human colon carcinoma cells. In kind it is functional, cell-based.
Assay [1] can be described thus: Selectivity ratio is IC50 of Human colon carcinoma cells to that of Monkey normal kidney epithelial cells. The assay is classed as functional, Epithelial cell.
In a further assay the test system is Bladder carcinoma cell. Description: Inhibitory concentration of compound against growth of human bladder carcinoma cells. The assay is classed as functional, cell-based.
For assay [2], the system named is LOX IMVI. Description: Inhibitory concentration of compound against growth of human melanoma cells. The assay is classed as functional, cell-based.
The subject of the next assay is MCF7. Description: Inhibitory concentration of compound against growth of human breast carcinoma cells. The assay is classed as functional, cell-based.
The test system of assay [3] is Mus musculus. Description: 5 mg/kg of compound was administered IP on days 1,5,7 to CX-1 tumor bearing nude mice and the inhibition ratio was reported. The assay is classed as functional.
In assay [4] the test system is Mus musculus. Description: 5 mg/kg of compound was administered IP on days 1,5,8,12 to LOX tumor bearing nude mice and the ratio of median survival time of treated to control was reported. The assay is classed as functional.
In the next assay the test system is MIA PaCa-2. Description: Inhibitory concentration of compound against growth of human pancreatic carcinoma cells. In kind it is functional, cell-based.
The test system of assay [5] is Mus musculus. Description: 5 mg/kg of compound was administered IP on days 1,3,7,10,16 to OVCARIII tumor bearing nude mice and the ratio of median survival time of treated to control was reported.
The subject of assay [6] is Mus musculus. Description: 1.5 mg/kg of compound was administered IP on days 1,3,4,7,9 to LOX tumor bearing nude mice and the ratio of median survival time of treated to control was reported. The assay is classed as functional.
For assay [7], the system named is Mus musculus. In words: 5 mg/kg of compound was administered IP on days 1,3,7,10,16 to […] tumor bearing nude mice and the ratio of median survival time of treated to control was reported. The conditions noted are these: at 5 mg/kg. In kind it is functional.
Assay [8] relates to Mus musculus. Description: 5 mg/kg of compound was administered IP on days 1,5,8,12,15 to LOX tumor bearing nude mice and the ratio of median survival time of treated to control was reported. The assay is classed as functional. The conditions noted are these: at 5 mg/kg.
The test system of assay [9] is LOX IMVI. In words: Inhibitory concentration of compound against growth of human melanoma cell cells. In kind it is functional, cell-based.
Assay [10] has as its system Mus musculus. Description: 2 mg/kg of compound was administered IP on days 1,2,4,5,7,8,10 to LOX tumor bearing nude mice and the ratio of median survival time of treated to control was reported. The assay is classed as functional. The conditions noted are these: at 2 mg/kg.
For assay [11], the system named is Mus musculus. In words: 4 mg/kg of compound was administered IP on days 1,2,4,5,7,8,10 to LOX tumor bearing nude mice and the ratio of median survival time of treated to control was reported. In kind it is functional. The conditions noted are these: at 4 mg/kg.
Where [12] appears, read: Homo sapiens, Bladder carcinoma cell.

Molecules are shown by their SMILES.

Turning to `CCN1/C(=C/C=C(Cl)/C=C/c2sc3ccc4ccccc4c3[n+]2CC)Sc2ccc3ccccc3c21.Cc1ccc(S(=O)(=O)[O-])cc1`, the IC50 in the assay with CV-1 is 100 nM; in the assay on CX-1 it was 60 nM. In addition, the Ratio in assay [1] is on record as 2.
Regarding `CC[n+]1c(/C=c2\s/c(=C3/Sc4ccccc4N3C)c(=O)n2-c2ccccc2)sc2ccccc21.Cc1ccc(S(=O)(=O)[O-])cc1`, the IC50 in the assay on CV-1 came out at 2200 nM; with CX-1 it was 10 nM; in the assay with Bladder carcinoma cell (setting [12]), 40 nM; in the assay with LOX IMVI [2], 40 nM; in the assay on MCF7 (Homo sapiens, MCF7), 60 nM; in the assay on MIA PaCa-2 (Homo sapiens, MIA PaCa-2), 40 nM. Moreover, the TI with Mus musculus [3] amounted to 42%. Further, the T/C is 183% in the assay on Mus musculus [4] and over 300% with Mus musculus [5]. Moreover, in assay [1], the Ratio came out at 220.
Regarding `CCN1/C(=C/C=c2\s/c(=C\c3sc4ccccc4[n+]3CC)n(-c3ccccc3)c2=O)Sc2ccccc21.[I-]`, the IC50 in the assay with CV-1 turned out to be 3000 nM; with CX-1, 60 nM; in the assay with Bladder carcinoma cell (setting [12]), 400 nM; with LOX IMVI [2] it was 40 nM; with MCF7 (Homo sapiens, MCF7) it was 40 nM; in the assay with MIA PaCa-2 (Homo sapiens, MIA PaCa-2) it was 70 nM. The T/C with Mus musculus [6] stood at 256%. Besides, the Ratio in [1] came out at 50.
Turning to `CCn1c(=O)/c(=C2\Sc3ccccc3N2C)s/c1=C\c1sc2ccccc2[n+]1CC.[I-]`, the IC50 with CV-1 is 17300 nM; in the assay on CX-1, 50 nM; in the assay on Bladder carcinoma cell (bladder carcinoma cell), 70 nM; with LOX IMVI [2], 20 nM; in the assay with MCF7 (mcf7), 90 nM; in the assay with MIA PaCa-2 (mia paca-2) it was 50 nM. For the same molecule, the T/C is listed as 180% in the assay with Mus musculus [7] and 168% in the assay with Mus musculus [8]. In assay [1], the Ratio is 346.
Regarding `CCn1c(=O)c(=C2CCCCC2)s/c1=C\c1sc2ccccc2[n+]1CC.Cc1ccc(S(=O)(=O)[O-])cc1`, the IC50 with CV-1 was 16200 nM; with CX-1, 1800 nM. Also, in [1], the Ratio worked out at 9.
On the same counts, the results for `CCn1c(=O)/c(=C2\Sc3ccccc3N2C)n(CC)/c1=C\c1sc2ccccc2[n+]1CC.[I-]` are 25400 nM, 1300 nM and 20.
On to `CC(=O)[O-].CCn1c(=O)/c(=C2\Sc3ccccc3N2C)s/c1=C\c1sc2ccccc2[n+]1CC`, for which the IC50 was determined as 60 nM with Bladder carcinoma cell (setting [12]); 10 nM in the assay with LOX IMVI [9]; 400 nM in the assay on MCF7 (mcf7); 60 nM in the assay with MIA PaCa-2 (Homo sapiens, MIA PaCa-2). Further, the figures for the T/C in the assay with Mus musculus [10] and with Mus musculus [11] were 156% and 163%, respectively.
As for `CCN1/C(=C/C=c2\s/c(=C\c3sc4ccc5ccccc5c4[n+]3CC)n(CC)c2=O)Sc2ccc3ccccc3c21.Cc1ccc(S(=O)(=O)[O-])cc1`, the IC50 was found to be 6500 nM with CV-1 and 30 nM in the assay on CX-1. Besides, the Ratio in assay [1] turned out to be 217.
On the same counts, the results for `CCN1/C(=C/C=c2/c(=O)n(CC)/c(=C/c3sc4c5ccccc5ccc4[n+]3CC)n2CC)Sc2ccc3ccccc3c21.[I-]` are 800 nM, 100 nM and 8.
Turning to `CC[n+]1c(/C=c2\s/c(=C\Nc3ccccc3)c(=O)n2-c2ccccc2)sc2ccccc21.[Br-]`, the IC50 in the assay with CV-1 and with CX-1 was 1500 nM each time. In [1], the Ratio amounted to 1.
For the molecule `CCN1/C(=C/C=c2\s/c(=C\c3sc4ccccc4[n+]3CC)sc2=O)Oc2ccccc21.[I-]`, the values for the IC50 in the assay on CV-1 and in the assay on CX-1 were 3400 nM and over 1700 nM, respectively. Also, in assay [1], the Ratio is listed as under 2.
For `CCN1C(=O)CS/C1=C\c1sc2ccccc2[n+]1CC.[Br-]`, in that order: 38900 nM, 1300 nM and 30.
On the same counts, the results for `CC[n+]1c(/C=C2\SCC(=O)N2c2ccccc2)sc2ccccc21.[Br-]` are 46100 nM, 2300 nM and 20.
For `CCN1/C(=C/C=c2/c(=O)s/c(=C/c3sc4ccccc4[n+]3CC)n2C)Oc2ccccc21.[I-]`, in that order: 3400 nM, 70 nM and 49.
Take `CCN1/C(=C/C=c2\s/c(=C\c3sc4ccccc4[n+]3CC)n(C)c2=O)Oc2ccccc21.[I-]`: the IC50 in the assay on CV-1 is 1700 nM; in the assay on CX-1, 30 nM. The Ratio in assay [1] is reported as 57.
On the same counts, the results for `CC[n+]1c(/C=c2\s/c(=C\C=C\Nc3ccccc3)c(=O)n2-c2ccccc2)sc2ccccc21.[I-]` are 9800 nM, 800 nM and 12.
On to `CCN1/C(=C/C=C/c2sc3ccccc3[n+]2CC)Sc2ccccc21.[I-]`, for which the IC50 in the assay on CV-1 was determined as 1200 nM; with CX-1, 60 nM. Further, in assay [1], the Ratio was determined as 20.

In general, IC50 refers to the concentration that inhibits the measured activity by half. A word on the T/C: it is the result in the treated group divided by that in the control group, in per cent.

The record behind these values is ChEMBL document CHEMBL1130168, “Synthesis and evaluation of novel rhodacyanine dyes that exhibit antitumor activity” (J Med Chem, 1997).
